Patent US8188059B2, “Compounds and methods for modulating expression of GCGR” (Isis Pharmaceuticals, Inc., priority 2006, dated 2012)
Strand notation (5' to 3'): a small letter for the sugar, then the base; units joined by * are phosphorothioate-linked, units joined directly phosphodiester-linked; [ ] holds rarer units or linkages, { } end groups; capitals alone tell only the bases. e = 2'-O-(2-methoxyethyl) (MOE); [5mC] = 5-methylcytosine; d = 2'-deoxy (DNA)

What was measured:
[1] = test system: ApoB mRNA; assay: ApoB mRNA level in liver of Balb/c mice, i.p. twice per week for three weeks (Example 3, Table 29); format: in vivo, mouse; conditions: for ApoB mRNA level: Table 30 (rounded); for % ApoB mRNA Level (relative to saline control): liver
Procedure: Prior to quantitative PCR analysis, primer-probe sets specific to the target gene being measured were evaluated for their ability to be “multiplexed” with a GAPDH amplification reaction. After isolation the RNA is subjected to sequential reverse transcriptase (RT) reaction and real-time PCR, both of which are performed in the same well. RT and PCR reagents were obtained from Invitrogen Life Technologies (Carlsbad, Calif.). […] The RT reaction was carried out by incubation for 30 minutes at 48° C. Following a 10 minute incubation at 95° C. to activate the […]® Taq, 40 cycles of a two-step PCR protocol were carried out: 95° C. for 15 seconds (denaturation) followed by 60° C. for 1.5 minutes (annealing/extension).
(§1) Antisense compound doses included 2.4, 1.2, 0.6, 0.3 and 0.15 μmol/kg. For antisense compounds 14 nucleotides in length, these doses equate to approximately 12, 6, 3, 1.5 or 0.75 mg/kg, respectively. Shown in Table 25 are the sequences and motifs of the antisense compounds used in this study. […] Bolded residues indicate 2′-O-methoxyethyl moieties and italicized residues indicate methyleneoxy (4′-CH2—O-2′) BNAs. The internucleoside linkages of each compound are phosphorothioate throughout. All cytosine residues of ISIS 147764 and ISIS 372938 are replaced by 5-methyl cytosines. For ISIS 387462, only the cytosine residue in the wing of the compound is replaced by 5-methyl cytosine. ApoB antisense compounds are targeted to publicly available ApoB-100 sequences, including Genbank Accession No. XM—137955.5 (SEQ ID NO: 2).
(§2) Forty-eight hours following the final injection, mice were sacrificed to evaluate transaminases (Table 26); liver and kidney weight (Table 27); triglyceride, LDL, HDL and free fatty acid levels (Table 28); target mRNA level in liver (Table 29); target protein level in plasma; and oligonucleotide tissue concentration (Table 30). These endpoints were determined using methods described herein and well known to those of ordinary skill in the art.

[2] = ALT and AST levels, Balb/c mice (Example 3, Table 26); format: in vivo, mouse; conditions: 48 h after final injection
Procedure: as §1, §2

[3] = Liver and kidney weight, total body weight and food consumption (Example 3, Table 27); format: in vivo, mouse; conditions: Balb/c mice
Procedure: as §1, §2

[4] = Triglyceride, total cholesterol, HDL, LDL, free fatty acid and glucose levels (Example 3, Table 28); format: in vivo, mouse; set-up: Free Fatty Acid (FFA): unit not given here; conditions: Balb/c mice
Procedure: as §1, §2
Glucose levels also were similar among all treatment groups.

[5] = Full-length and total antisense compound tissue concentration in liver and kidney (Example 3, Table 30); format: in vivo, mouse; conditions: Balb/c mice, 2.4 μmol/kg i.p. twice per week for three weeks
Procedure: as §1, §2
To determine whether the observed increase in efficiency with the methyleneoxy (4′-CH2—O-2′) BNA gapmer is due to an increase in oligonucleotide accumulation, full-length and total oligonucleotide concentration in the liver and kidney were determined.

[6] = test system: monkey GCGR mRNA; assay: Antisense inhibition of GCGR in primary monkey hepatocytes, 25-200 nM (Example 21, Table 80); format: cell-based; conditions: relative to untreated control cells
Procedure: Additional short antisense compounds targeted to a GCGR nucleic acid were tested for their effects on monkey GCGR mRNA in vitro. Cultured primary monkey hepatocytes were treated as described herein with 25, 50, 100 or 200 nM of short antisense compound. After the treatment period, RNA was isolated from the cells and GCGR mRNA levels were measured by quantitative real-time PCR, as described herein. GCGR mRNA levels were adjusted according to total RNA content as measured by RIBOGREEN®. Results are presented in Table 80 as percent reduction in GCGR mRNA, relative to untreated control cells.

[7] = 2.4 μmol/kg i.p. twice per week for three weeks
[8] = 0.15 μmol/kg i.p. twice per week for three weeks
[9] = 0.3 μmol/kg i.p. twice per week for three weeks
[10] = 0.6 μmol/kg i.p. twice per week for three weeks
[11] = 1.2 μmol/kg i.p. twice per week for three weeks

147764 (antisense eG*eT*e[5mC]*e[5mC]*e[5mC]*dT*dG*dA*dA*dG*dA*dT*dG*dT*d[5mC]*eA*eA*eT*eG*e[5mC]) [compound 147764]
ApoB mRNA level [1, 7]: 58 % of saline control
% ApoB mRNA Level (relative to saline control) [1, 7]: 57.7%
ALT [2, 7]: 29.5 IU/L
AST [2, 7]: 64.0 IU/L
Kidney Weight [3, 7]: 105 % of saline control
Liver Weight [3, 7]: 102 % of saline control
Free Fatty Acid (FFA) [4, 7]: 1.29
HDL [4, 7]: 81.3 mg/dL
LDL [4, 7]: 10.3 mg/dL
Total Cholesterol (CHOL) [4, 7]: 107 mg/dL
Triglyceride (TRIG) [4, 7]: 167 mg/dL
Kidney Full-Length antisense compound tissue concentration [5]: 28.6 µM
Kidney Total antisense compound tissue concentration [5]: 33.5 µM
Liver Full-Length antisense compound tissue concentration [5]: 22.9 µM
Liver Total antisense compound tissue concentration [5]: 31.3 µM

327131 (antisense eA*eT*eG*dT*dT*dG*dG*d[5mC]*d[5mC]*dG*dT*eG*eG*eT) [compound 327131]
percent reduction in GCGR mRNA ([6]; 25 nM): 0
percent reduction in GCGR mRNA ([6]; 50 nM): −8
percent reduction in GCGR mRNA ([6]; 100 nM): −36
percent reduction in GCGR mRNA ([6]; 200 nM): −36

372938 (antisense eG*eG*dT*dA*d[5mC]*dA*dT*dG*dG*dA*dA*dG*eT*e[5mC]) [compound 372938]
ApoB mRNA level [1, 7]: 77 % of saline control
% ApoB mRNA Level (relative to saline control) [1, 8]: 93.1%
% ApoB mRNA Level (relative to saline control) [1, 9]: 92.6%
% ApoB mRNA Level (relative to saline control) [1, 10]: 87.3%
% ApoB mRNA Level (relative to saline control) [1, 11]: 90.0%
% ApoB mRNA Level (relative to saline control) [1, 7]: 77.0%
ALT [2, 8]: 28.3 IU/L
AST [2, 8]: 50.3 IU/L
ALT [2, 9]: 28.3 IU/L
AST [2, 9]: 60.0 IU/L
ALT [2, 10]: 28.0 IU/L
AST [2, 10]: 79.3 IU/L
ALT [2, 11]: 24.8 IU/L
AST [2, 11]: 49.5 IU/L
ALT [2, 7]: 26.0 IU/L
AST [2, 7]: 49.0 IU/L
Kidney Weight [3, 8]: 98 % of saline control
Liver Weight [3, 8]: 96 % of saline control
Kidney Weight [3, 9]: 107 % of saline control
Liver Weight [3, 9]: 91 % of saline control
Kidney Weight [3, 10]: 112 % of saline control
Liver Weight [3, 10]: 96 % of saline control
Kidney Weight [3, 11]: 101 % of saline control
Liver Weight [3, 11]: 90 % of saline control
Kidney Weight [3, 7]: 100 % of saline control
Liver Weight [3, 7]: 100 % of saline control
Free Fatty Acid (FFA) [4, 8]: 1.57
HDL [4, 8]: 82.8 mg/dL
LDL [4, 8]: 10.8 mg/dL
Total Cholesterol (CHOL) [4, 8]: 106 mg/dL
Triglyceride (TRIG) [4, 8]: 151 mg/dL
Free Fatty Acid (FFA) [4, 9]: 1.53
HDL [4, 9]: 84.3 mg/dL
LDL [4, 9]: 11.0 mg/dL
Total Cholesterol (CHOL) [4, 9]: 109 mg/dL
Triglyceride (TRIG) [4, 9]: 138 mg/dL
Free Fatty Acid (FFA) [4, 10]: 1.66
HDL [4, 10]: 83.3 mg/dL
LDL [4, 10]: 10.8 mg/dL
Total Cholesterol (CHOL) [4, 10]: 110 mg/dL
Triglyceride (TRIG) [4, 10]: 184 mg/dL
Free Fatty Acid (FFA) [4, 11]: 1.70
HDL [4, 11]: 77.8 mg/dL
LDL [4, 11]: 9.5 mg/dL
Total Cholesterol (CHOL) [4, 11]: 101 mg/dL
Triglyceride (TRIG) [4, 11]: 136 mg/dL
Free Fatty Acid (FFA) [4, 7]: 1.28
HDL [4, 7]: 79.0 mg/dL
LDL [4, 7]: 10.3 mg/dL
Total Cholesterol (CHOL) [4, 7]: 104 mg/dL
Triglyceride (TRIG) [4, 7]: 153 mg/dL
Kidney Full-Length antisense compound tissue concentration [5]: 32.0 µM
Kidney Total antisense compound tissue concentration [5]: 34.0 µM
Liver Full-Length antisense compound tissue concentration [5]: 5.49 µM
Liver Total antisense compound tissue concentration [5]: 7.76 µM
